Laboratory results published in ChEMBL document CHEMBL5678818, “Discovery of potent SOS1 inhibitors that block RAS activation via disruption of the RAS-SOS1 interaction” (Proc Natl Acad Sci U S A, 2019).

Assays:
[1] = tested on: Tyrosine-protein kinase ABL1 (Homo sapiens), P00519 [F317I]; test: Inhibition of phosphorylated ABL1 F317I mutant (unknown origin) assessed as residual activity at 1000 nM by KINOMEscan analysis relative to control
[2] = target: Tyrosine-protein kinase ABL1 (Homo sapiens) (UniProt P00519); test: Inhibition of phosphorylated ABL1 (unknown origin) assessed as residual activity at 1000 nM by KINOMEscan analysis relative to control
Sequence of Tyrosine-protein kinase ABL1 (Homo sapiens) (P00519 whole entry): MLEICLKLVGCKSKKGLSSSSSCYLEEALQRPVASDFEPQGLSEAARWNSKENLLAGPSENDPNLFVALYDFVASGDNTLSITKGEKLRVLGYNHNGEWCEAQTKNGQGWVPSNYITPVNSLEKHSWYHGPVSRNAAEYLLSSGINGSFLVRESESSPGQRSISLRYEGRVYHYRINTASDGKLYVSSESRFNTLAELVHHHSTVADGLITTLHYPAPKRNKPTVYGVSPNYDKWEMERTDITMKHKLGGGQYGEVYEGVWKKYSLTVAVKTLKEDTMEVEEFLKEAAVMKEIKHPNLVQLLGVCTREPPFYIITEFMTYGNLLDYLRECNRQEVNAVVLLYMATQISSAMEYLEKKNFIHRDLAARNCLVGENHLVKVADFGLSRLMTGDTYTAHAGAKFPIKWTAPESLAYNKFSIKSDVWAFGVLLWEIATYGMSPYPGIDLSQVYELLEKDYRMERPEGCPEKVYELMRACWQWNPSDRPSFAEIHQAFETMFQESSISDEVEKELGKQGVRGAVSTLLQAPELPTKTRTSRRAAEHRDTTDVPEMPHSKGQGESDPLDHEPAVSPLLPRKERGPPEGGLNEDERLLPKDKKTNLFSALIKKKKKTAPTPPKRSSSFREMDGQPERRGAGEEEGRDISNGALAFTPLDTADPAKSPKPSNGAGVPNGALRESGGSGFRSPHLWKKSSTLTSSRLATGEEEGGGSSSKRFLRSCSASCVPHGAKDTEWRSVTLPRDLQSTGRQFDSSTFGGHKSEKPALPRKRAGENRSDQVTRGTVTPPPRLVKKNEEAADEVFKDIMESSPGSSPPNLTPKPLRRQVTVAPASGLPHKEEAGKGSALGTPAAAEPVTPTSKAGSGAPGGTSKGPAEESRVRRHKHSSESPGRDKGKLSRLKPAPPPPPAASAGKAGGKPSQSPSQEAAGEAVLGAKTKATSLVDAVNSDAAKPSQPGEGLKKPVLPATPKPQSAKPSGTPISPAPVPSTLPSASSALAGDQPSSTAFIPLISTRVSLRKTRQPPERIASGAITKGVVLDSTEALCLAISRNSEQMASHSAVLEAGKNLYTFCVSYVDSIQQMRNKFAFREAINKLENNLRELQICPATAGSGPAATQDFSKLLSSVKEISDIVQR

[3] = target: Cyclin-dependent kinase-like 1 (Homo sapiens) (UniProt Q00532); test: Inhibition of CDKL1 (unknown origin) assessed as residual activity at 1000 nM by KINOMEscan analysis relative to control
Sequence of Cyclin-dependent kinase-like 1 (Homo sapiens) (Q00532 whole entry): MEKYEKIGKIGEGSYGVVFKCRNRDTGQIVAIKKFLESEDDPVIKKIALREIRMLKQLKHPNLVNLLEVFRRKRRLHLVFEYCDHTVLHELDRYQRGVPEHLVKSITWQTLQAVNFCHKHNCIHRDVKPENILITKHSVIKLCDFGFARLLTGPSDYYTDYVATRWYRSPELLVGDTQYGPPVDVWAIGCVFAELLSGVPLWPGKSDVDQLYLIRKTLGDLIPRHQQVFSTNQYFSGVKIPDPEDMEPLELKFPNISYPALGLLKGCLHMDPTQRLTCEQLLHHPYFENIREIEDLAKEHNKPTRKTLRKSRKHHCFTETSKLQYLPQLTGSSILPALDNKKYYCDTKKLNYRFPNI

[4] = target: Receptor-type tyrosine-protein kinase FLT3 (Homo sapiens) (UniProt P36888); test: Inhibition of FLT3 (unknown origin) assessed as residual activity at 1000 nM by KINOMEscan analysis relative to control
Sequence of Receptor-type tyrosine-protein kinase FLT3 (Homo sapiens) (P36888 whole entry): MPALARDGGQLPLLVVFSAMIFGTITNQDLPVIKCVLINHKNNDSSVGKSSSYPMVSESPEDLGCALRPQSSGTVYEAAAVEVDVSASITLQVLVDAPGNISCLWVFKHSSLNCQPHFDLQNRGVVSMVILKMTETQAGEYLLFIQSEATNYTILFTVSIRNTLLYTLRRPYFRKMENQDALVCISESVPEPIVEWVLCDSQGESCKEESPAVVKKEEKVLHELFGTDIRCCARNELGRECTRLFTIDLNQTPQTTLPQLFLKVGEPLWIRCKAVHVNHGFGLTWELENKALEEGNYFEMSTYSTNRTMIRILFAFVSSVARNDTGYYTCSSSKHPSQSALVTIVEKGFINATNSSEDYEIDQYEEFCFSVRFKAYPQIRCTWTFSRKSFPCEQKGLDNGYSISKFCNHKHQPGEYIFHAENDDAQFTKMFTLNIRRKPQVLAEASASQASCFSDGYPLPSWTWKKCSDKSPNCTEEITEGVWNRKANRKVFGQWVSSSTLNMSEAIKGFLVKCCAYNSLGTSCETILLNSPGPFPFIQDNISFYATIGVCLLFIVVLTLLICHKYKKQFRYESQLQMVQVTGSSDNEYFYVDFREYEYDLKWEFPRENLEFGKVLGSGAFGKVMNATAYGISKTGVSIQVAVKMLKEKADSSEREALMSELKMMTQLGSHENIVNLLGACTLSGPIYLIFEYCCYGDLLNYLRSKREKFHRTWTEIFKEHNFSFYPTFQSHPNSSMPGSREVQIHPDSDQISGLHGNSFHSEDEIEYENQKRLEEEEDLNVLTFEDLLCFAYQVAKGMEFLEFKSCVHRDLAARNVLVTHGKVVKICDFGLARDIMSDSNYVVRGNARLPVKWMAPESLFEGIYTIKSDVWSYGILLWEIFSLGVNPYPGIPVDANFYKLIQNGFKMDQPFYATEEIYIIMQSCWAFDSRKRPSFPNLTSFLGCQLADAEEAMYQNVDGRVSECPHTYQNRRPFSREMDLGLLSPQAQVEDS

[5] = target: T1, Homeodomain-interacting protein kinase 4 (Homo sapiens) (UniProt Q8NE63); test: Inhibition of HIPK4 (unknown origin) assessed as residual activity at 1000 nM by KINOMEscan analysis relative to control
T1 sequence (whole entry): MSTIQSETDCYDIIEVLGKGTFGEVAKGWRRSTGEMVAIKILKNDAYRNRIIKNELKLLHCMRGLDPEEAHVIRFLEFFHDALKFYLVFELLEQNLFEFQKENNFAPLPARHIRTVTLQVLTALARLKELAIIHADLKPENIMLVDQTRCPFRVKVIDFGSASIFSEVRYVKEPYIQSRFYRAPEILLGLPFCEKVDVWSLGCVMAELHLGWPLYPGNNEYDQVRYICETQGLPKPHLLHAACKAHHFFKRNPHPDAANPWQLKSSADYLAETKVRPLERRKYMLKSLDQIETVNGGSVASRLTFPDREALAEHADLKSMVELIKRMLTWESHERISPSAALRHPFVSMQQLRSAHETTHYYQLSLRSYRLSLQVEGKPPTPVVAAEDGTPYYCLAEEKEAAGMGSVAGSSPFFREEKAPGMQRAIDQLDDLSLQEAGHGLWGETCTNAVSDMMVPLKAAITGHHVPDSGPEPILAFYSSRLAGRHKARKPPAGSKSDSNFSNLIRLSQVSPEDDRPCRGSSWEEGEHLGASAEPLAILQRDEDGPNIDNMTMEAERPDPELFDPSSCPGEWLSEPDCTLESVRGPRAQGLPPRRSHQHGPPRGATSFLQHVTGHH

[6] = target: T2, Phosphorylase b kinase gamma catalytic chain, liver/testis isoform (Homo sapiens) (UniProt P15735); test: Inhibition of PHKG2 (unknown origin) assessed as residual activity at 1000 nM by KINOMEscan analysis relative to control
T2 sequence (whole entry): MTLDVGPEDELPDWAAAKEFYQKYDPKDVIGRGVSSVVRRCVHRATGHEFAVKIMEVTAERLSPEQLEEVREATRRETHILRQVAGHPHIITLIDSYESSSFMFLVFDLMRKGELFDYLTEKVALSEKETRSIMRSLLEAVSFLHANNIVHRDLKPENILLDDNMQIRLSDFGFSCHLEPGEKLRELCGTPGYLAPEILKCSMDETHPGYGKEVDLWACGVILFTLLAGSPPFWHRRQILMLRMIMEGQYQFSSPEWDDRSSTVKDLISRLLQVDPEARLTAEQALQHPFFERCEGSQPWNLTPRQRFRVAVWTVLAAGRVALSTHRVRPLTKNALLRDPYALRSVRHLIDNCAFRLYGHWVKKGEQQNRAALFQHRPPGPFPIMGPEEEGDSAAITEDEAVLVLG

[7] = target: Ribosomal protein S6 kinase alpha-1 (Homo sapiens) (UniProt Q15418); test: Inhibition of C-terminal RSK1 kinetic domain 2 (unknown origin) assessed as residual activity at 1000 nM by KINOMEscan analysis relative to control
Sequence of Ribosomal protein S6 kinase alpha-1 (Homo sapiens) (Q15418 whole entry, the tested form may be a part): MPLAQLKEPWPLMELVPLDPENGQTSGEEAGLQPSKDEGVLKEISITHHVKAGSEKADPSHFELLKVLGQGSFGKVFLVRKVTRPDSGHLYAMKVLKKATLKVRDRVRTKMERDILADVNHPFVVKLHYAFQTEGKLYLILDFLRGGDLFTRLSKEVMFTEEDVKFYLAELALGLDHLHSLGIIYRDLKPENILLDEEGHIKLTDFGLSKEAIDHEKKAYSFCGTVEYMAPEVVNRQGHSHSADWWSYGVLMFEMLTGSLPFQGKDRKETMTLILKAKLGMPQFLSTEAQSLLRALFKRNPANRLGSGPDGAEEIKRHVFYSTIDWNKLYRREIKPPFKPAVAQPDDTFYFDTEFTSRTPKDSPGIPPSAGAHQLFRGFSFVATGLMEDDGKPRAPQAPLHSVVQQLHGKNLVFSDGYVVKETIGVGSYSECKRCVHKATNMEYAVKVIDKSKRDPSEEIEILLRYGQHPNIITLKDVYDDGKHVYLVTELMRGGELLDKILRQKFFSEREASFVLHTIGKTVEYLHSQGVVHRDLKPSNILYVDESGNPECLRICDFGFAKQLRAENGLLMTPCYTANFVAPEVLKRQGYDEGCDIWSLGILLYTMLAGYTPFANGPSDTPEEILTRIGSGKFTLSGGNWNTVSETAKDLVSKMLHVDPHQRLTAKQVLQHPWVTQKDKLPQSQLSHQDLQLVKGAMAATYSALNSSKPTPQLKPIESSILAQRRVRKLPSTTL

[8] = target: T3, Serine/threonine-protein kinase Sgk2 (Homo sapiens) (UniProt Q9HBY8); test: Inhibition of SGK2 (unknown origin) assessed as residual activity at 1000 nM by KINOMEscan analysis relative to control
T3 sequence (whole entry): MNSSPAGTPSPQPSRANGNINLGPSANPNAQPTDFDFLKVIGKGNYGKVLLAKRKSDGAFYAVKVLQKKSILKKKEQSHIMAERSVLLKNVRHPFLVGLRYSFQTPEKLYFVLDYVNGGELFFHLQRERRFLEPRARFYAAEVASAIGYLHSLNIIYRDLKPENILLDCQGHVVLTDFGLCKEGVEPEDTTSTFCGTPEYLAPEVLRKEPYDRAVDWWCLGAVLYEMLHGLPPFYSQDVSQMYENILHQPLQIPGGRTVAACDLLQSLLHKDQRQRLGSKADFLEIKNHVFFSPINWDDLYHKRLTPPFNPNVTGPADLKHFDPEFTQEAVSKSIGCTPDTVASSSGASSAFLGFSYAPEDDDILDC

[9] = target: T4, Serine/threonine-protein kinase ULK3 (Homo sapiens) (UniProt Q6PHR2); test: Inhibition of ULK3 (unknown origin) assessed as residual activity at 1000 nM by KINOMEscan analysis relative to control
T4 sequence (whole entry): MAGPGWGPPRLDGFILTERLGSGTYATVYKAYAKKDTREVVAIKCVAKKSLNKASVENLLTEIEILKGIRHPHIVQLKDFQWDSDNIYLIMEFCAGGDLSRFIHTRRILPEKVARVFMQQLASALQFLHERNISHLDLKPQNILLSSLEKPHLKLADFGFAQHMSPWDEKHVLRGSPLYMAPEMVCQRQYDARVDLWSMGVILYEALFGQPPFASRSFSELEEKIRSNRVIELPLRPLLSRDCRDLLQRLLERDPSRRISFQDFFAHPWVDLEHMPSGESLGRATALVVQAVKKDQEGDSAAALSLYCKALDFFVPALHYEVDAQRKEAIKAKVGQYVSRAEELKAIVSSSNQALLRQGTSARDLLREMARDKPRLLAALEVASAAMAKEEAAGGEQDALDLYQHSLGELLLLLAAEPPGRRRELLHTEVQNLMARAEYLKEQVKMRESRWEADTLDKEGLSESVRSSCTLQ

Sequence of Tyrosine-protein kinase ABL1 (Homo sapiens), P00519 [F317I] (P00519 whole entry F317I): as the sequence (P00519 whole entry) above, with F317I counted along it

Row | SMILES | Activity [1] | Activity [2] | Activity [3] | Activity [4] | Activity [5] | Activity [6] | Activity [7] | Activity [8] | Activity [9]
1 | COc1cc2nc(C)nc(N[C@H](C)c3cccc(-c4cn[nH]c4)c3)c2cc1OC | 75% | 81% | 73% | 78% | 80% | 59% | 99% | 94% | 82%
2 | COc1cc2ncnc(N[C@H](C)c3cccc4ccccc34)c2cc1OC | 71% | 97% | 89% | 93% | 100% | 100% | 100% | 51% | 99%
